From patent publication US7482365B2, “Piperidylcarboxamide derivatives and their use in the treatment of tachykinin-mediated diseases” (Glaxo Group Limited, priority 2002, dated 2009)

SMILES | melting point [°C]
Cc1cc(F)ccc1[C@H]1C[C@H](N(C)C)CCN1C(=O)N(C)Cc1cc(C(F)(F)F)cc(C(F)(F)F)c1.Cl | 180 to 183
Cc1cc(F)ccc1[C@H]1C[C@@H](N(C)C)CCN1C(=O)N(C)Cc1cc(C(F)(F)F)cc(C(F)(F)F)c1.Cl | 147 to 150

Second part, the molecule after the results:

melting point [°C] | SMILES
130 to 131 | Cc1cc(F)ccc1[C@H]1C[C@H](NCC(N)=O)CCN1C(=O)N(C)Cc1cc(C(F)(F)F)cc(C(F)(F)F)c1.Cl
100 to 101 | Cc1cc(F)ccc1[C@H]1C[C@@H](NCC(N)=O)CCN1C(=O)N(C)Cc1cc(C(F)(F)F)cc(C(F)(F)F)c1.Cl
145 to 146 | Cc1cc(F)ccc1[C@H]1C[C@H](NCCF)CCN1C(=O)N(C)Cc1cc(C(F)(F)F)cc(C(F)(F)F)c1.Cl
